What is called cell viability is a read-out of living cells in per cent, often relative to untreated cells.

What all share (details): 72 h
In assay [1] the test system is U2OS. Nature of the assay: drug sensitivity score (DSS) for viability; higher = more toxic; extreme values may be limits of the assay.
For assay [2], the system named is Vero E6. Described as above.
The subject of assay [3] is Calu-3. The assay is described as above.
Assay [4] relates to Caco-2. The assay is described as above.
Assay [5] deals with HepG2. Described as above.
Assay [6] concerns Vero E6. In words: relative viability EC50 (midpoint between 100% and the lowest measured viability); higher = less toxic.
The test system of assay [7] is Calu-3. The description is as above.
Assay [8] concerns HepG2. Described as above.
The test system of assay [9] is U2OS. Nature of the assay: cell viability relative to DMSO; higher = less toxic.
The test system of assay [10] is Vero E6. The description is as above.
Assay [11] has as its system Calu-3. The description is as above.
The subject of assay [12] is Caco-2. The assay is described as above.
The subject of assay [13] is HepG2. Described as above.
The test system of assay [14] is U2OS. Nature of the assay: relative viability EC50 (midpoint between 100% and the lowest measured viability); higher = less toxic.

As for `CCc1c2c(nc3ccc(OC(=O)N4CCC(N5CCCCC5)CC4)cc13)-c1cc3c(c(=O)n1C2)COC(=O)[C@]3(O)CC` [irinotecan], the drug sensitivity score with U2OS [1] was 3.8; in the assay on Vero E6 [2], 1.6; with Calu-3 [3], 6.5; in the assay with Caco-2 [4] it was 3.3; with HepG2 [5] it was 14.4. Also, the results for the “relative viability EC50” value in the assay with Vero E6 [6], with Calu-3 [7] and in the assay with HepG2 [8] were > 10000 nM, 679 nM and 244 nM, respectively. In addition, the cell viability in the assay with U2OS [9] (1 nM) is 104%; with U2OS [9] (10 nM), 97.4%; with U2OS [9] (100 nM) it was 98.1%; in the assay on U2OS [9] (1000 nM) it was 88.7%; with U2OS [9] (10000 nM) it was 59.1%; with Vero E6 [10] (1 nM), 94.3%. Also, the cell viability with Vero E6 [10] (10 nM) is 97.4%; in the assay on Vero E6 [10] (100 nM), 95.6%; with Vero E6 [10] (1000 nM), 95.8%; with Vero E6 [10] (10000 nM), 75.2%; in the assay with Calu-3 [11] (1 nM), 103%; in the assay with Calu-3 [11] (10 nM), 94.7%. Further, the cell viability with Calu-3 [11] (100 nM) is 93.7%; in the assay on Calu-3 [11] (1000 nM) it was 69.3%; in the assay with Calu-3 [11] (10000 nM), 47.5%; with Caco-2 [12] (1 nM), 95.1%; in the assay with Caco-2 [12] (10 nM) it was 91.6%; in the assay on Caco-2 [12] (100 nM) it was 95.5%. Further, the cell viability in the assay on Caco-2 [12] (1000 nM) was determined as 90.9%; in the assay with Caco-2 [12] (10000 nM) it was 61.5%; with HepG2 [13] (1 nM), 95.4%; in the assay on HepG2 [13] (10 nM) it was 99.2%; with HepG2 [13] (100 nM) it was 76.9%; with HepG2 [13] (1000 nM), 37.5%. Further, in the assay on HepG2 [13] (10000 nM), the cell viability was determined as 21.7%.
As for `CO[C@@H]1[C@@H](O[C@@H]2O[C@H](C)[C@@H](O[C@H]3C[C@@](C)(O)[C@@H](OC(=O)CC(C)C)[C@H](C)O3)[C@H](N(C)C)[C@H]2O)[C@@H](CC=O)C[C@@H](C)[C@@H](O)/C=C/C=C/C[C@@H](C)OC(=O)C[C@H]1OC(C)=O` [josamycin], the drug sensitivity score in the assay with U2OS [1] stood at 0; in the assay on Vero E6 [2] it was 0; with Calu-3 [3], 0; with Caco-2 [4] it was 1.1; in the assay on HepG2 [5], 1.7. Moreover, the “relative viability EC50” value in the assay on U2OS [14], in the assay with Vero E6 [6] and in the assay with Calu-3 [7] was > 10000 nM each time. For the same molecule, the cell viability in the assay with U2OS [9] (1 nM) is 101%; in the assay on U2OS [9] (10 nM), 89.3%; in the assay with U2OS [9] (100 nM), 97.5%; with U2OS [9] (1000 nM) it was 101%; with U2OS [9] (10000 nM), 100%; in the assay on Vero E6 [10] (1 nM), 95%. In addition, the cell viability in the assay on Vero E6 [10] (10 nM) worked out at 98.6%; with Vero E6 [10] (100 nM) it was 105%; in the assay on Vero E6 [10] (1000 nM) it was 92.1%; with Vero E6 [10] (10000 nM), 99.1%; in the assay on Calu-3 [11] (1 nM), 103%; with Calu-3 [11] (10 nM), 102%. Besides, the cell viability in the assay with Calu-3 [11] (100 nM) is 106%; in the assay on Calu-3 [11] (1000 nM), 98.2%; in the assay on Calu-3 [11] (10000 nM) it was 106%; in the assay with Caco-2 [12] (1 nM), 101%; with Caco-2 [12] (10 nM), 94.2%; with Caco-2 [12] (100 nM) it was 100%. For the same molecule, the cell viability in the assay on Caco-2 [12] (1000 nM) was determined as 107%; with Caco-2 [12] (10000 nM) it was 68%; in the assay with HepG2 [13] (1 nM), 107%; with HepG2 [13] (10 nM) it was 105%; with HepG2 [13] (100 nM) it was 117%; in the assay on HepG2 [13] (1000 nM), 95%. Also, in the assay with HepG2 [13] (10000 nM), the cell viability is 74.4%.
Take `CC(=O)O[C@]1(C(C)=O)CC[C@H]2[C@@H]3C=C(C)C4=CC(=O)CC[C@]4(C)[C@H]3CC[C@@]21C` [megestrol-acetate]: the drug sensitivity score in the assay on U2OS [1], with Vero E6 [2], in the assay with Calu-3 [3] and in the assay with HepG2 [5] was 0 each time.
As for `COC(=O)c1ccc(O)cc1` [methylparaben], the drug sensitivity score in the assay with U2OS [1], in the assay on Vero E6 [2], in the assay on Calu-3 [3] and in the assay with HepG2 [5] was 0 each time.
Turning to `CO[C@@H]1[C@H](N(C)C(=O)c2ccccc2)C[C@H]2O[C@]1(C)n1c3ccccc3c3c4c(c5c6ccccc6n2c5c31)C(=O)NC4` [midostaurin], the drug sensitivity score in the assay on U2OS [1] amounted to 8.8; in the assay on Vero E6 [2], 7.8; in the assay on Calu-3 [3] it was 7.1; in the assay on Caco-2 [4] it was 4.7; in the assay with HepG2 [5] it was 9.3. Also, the “relative viability EC50” value in the assay with U2OS [14] amounted to 897 nM; with Vero E6 [6] it was 793 nM; in the assay with Calu-3 [7] it was 885 nM; in the assay on HepG2 [8] it was 369 nM. Besides, the cell viability with U2OS [9] (1 nM) was found to be 102%; with U2OS [9] (10 nM) it was 99.2%; in the assay with U2OS [9] (100 nM) it was 103%; in the assay with U2OS [9] (1000 nM) it was 59.6%; in the assay with U2OS [9] (10000 nM), 29%; in the assay with Vero E6 [10] (1 nM) it was 110%. In addition, the cell viability with Vero E6 [10] (10 nM) was determined as 101%; with Vero E6 [10] (100 nM) it was 94.3%; with Vero E6 [10] (1000 nM), 63.9%; in the assay with Vero E6 [10] (10000 nM), 36%; in the assay on Calu-3 [11] (1 nM), 89.5%; with Calu-3 [11] (10 nM), 88.5%. Moreover, the cell viability with Calu-3 [11] (100 nM) was 102%; in the assay on Calu-3 [11] (1000 nM) it was 67.3%; in the assay on Calu-3 [11] (10000 nM), 43.3%; in the assay with Caco-2 [12] (1 nM), 108%; with Caco-2 [12] (10 nM), 111%; with Caco-2 [12] (100 nM), 97.4%. The cell viability stood at 74.9% with Caco-2 [12] (1000 nM); 63.3% with Caco-2 [12] (10000 nM); 97% in the assay with HepG2 [13] (1 nM); 94% with HepG2 [13] (10 nM); 93.9% in the assay on HepG2 [13] (100 nM); 53.9% in the assay with HepG2 [13] (1000 nM). In addition, in the assay on HepG2 [13] (10000 nM), the cell viability was determined as 44.3%.

The values above are taken from the supplement of paper PMC13380429.
